Among the data in patent US12583851B2, “Heteroaryl-substituted pyrazine derivatives as pesticides” (Elanco Animal Health GmbH, priority 2019, dated 2026) are mortality and pest or weed control values, retold here.

Usually mortality stands for the percentage killed.

Each structure is given as a SMILES string.

What all share (assay type): in vivo
Experiment [1] relates to adult unfed cat fleas (Ctenocephalides felis). Kind of experiment: Ctenocephalides felis oral test. Particulars: 48 h, 100 ppm in citrated cattle blood, after 2 days. In outline:
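About 20 adult unfed cat fleas fed through parafilm on citrated cattle blood containing compound (from a DMSO concentrate). Blood held at 37° C, fleas at room temperature. Mortality in % scored after 2 days.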

In experiment [2] the test system is brown planthopper (Nilaparvata lugens). As to the kind of experiment: Nilaparvata lugens spray test. Particulars: 96 h, 100 g/ha, rice plants, after 4 days. The procedure:
Nilaparvata lugens—Spray Test
Solvent: 78.0 parts by weight of acetone • • 1.5 parts by weight of dimethylformamide
Emulsifier: alkylarylpolyglycol ether
To produce a suitable preparation of active compound, 1 part by weight of active compound is mixed with the stated amount of solvents and is diluted with water, containing an emulsifier concentration of 1000 ppm, to the desired concentration. Further test concentrations are prepared by dilution with emulsifier containing water.
Rice plants (Oryza sativa) are sprayed with a preparation of the active ingredient of the desired concentration and the plants are infested with the brown planthopper (Nilaparvata lugens).
After 4 days mortality in % is determined. 100% means all planthoppers have been killed and 0% means none of the planthoppers have been killed.

Experiment [3] has as its system adult mosquitoes Anopheles funestus strain FUMOZ-R. Kind of experiment: Anopheles funestus test (ANPHFU surface treatment & contact assay). As to conditions: surface concentration 20 mg/m^2, 30 minutes exposure, 24 hours after contact, read-out: mortality (efficacy). The procedure: Anopheles funestus Test (ANPHFU Surface Treatment & Contact Assay)
Solvent: Aceton+2000 ppm rapeseed oil methyl ester (RME)
In order to produce a sufficient, active ingredient containing solution it is necessary to solve the test compound in the solvent-mix (acetone at 2 mg/ml/RME 2000 ppm). This solution is pipetted onto a glazed tile and after evaporation of the acetone, adult mosquitoes of the species Anopheles funestus strain FUMOZ-R (Hunt et al., Med. Vet. Entomol. 2005 Sep. 19(3): 271-275) are placed onto the dried surface. The exposure time is 30 minutes.
Mortality in percent (%) is determined 24 hours after contact of the insects to the treated surface. 100% mortality means that all tested insects are dead, whereas 0% means that no insect died.

Experiment [4] deals with adult cat fleas (Ctenocephalides felis). As to the kind of experiment: Ctenocephalides felis in-vitro contact test, adult cat flea. Particulars: 5 μg/cm^2 (=500 g/ha), after 48 hours, read-out: efficacy (fleas dead or moribund). In outline:
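Acetone solution coated onto glass tube walls; 900 ppm gives 5 μg/cm². Once dry, 5–10 adult fleas per tube held at room temperature for 48 h. Efficacy (%) is the share of fleas dead or moribund, i.e. unable to climb away on a 45–50° C heating plate.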

Experiment [5] has as its system adult brown dog ticks (Rhipicephalus sanguineus). As to the kind of experiment: Rhipicephalus sanguineus in-vitro contact test, adult brown dog ticks. As to conditions: 48 h, 5 μg/cm^2 (=500 g/ha), after 48 hours, read-out: efficacy (ticks dead or moribund). In outline: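 Acetone solution coated on glass tube inner walls (900 ppm, giving 5 μg/cm^2); after drying, 5–10 adult ticks added and kept 48 h at room temperature. Efficacy scored as percent dead or moribund, i.e., ticks unable to climb away on a 45–50 °C heating plate within 5 min.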

The compound `CC(NC(=O)c1cc(C(F)(F)F)cc(C(F)(F)F)c1)c1nccnc1-c1ncccn1` (racemic) [Example I-8, (rac)-N-(1-(3-(Pyrimidin-2-yl)pyrazin-2-yl)ethyl)-3,5-bis(trifluoromethyl)benzamide] yielded a mortality at 100 ppm in experiment [1] of 100%. The compound also gave a mortality at 100 g/ha in experiment [2] of 100%. Also, the mortality at 20 mg/m2 in experiment [3] lay in the range of 80 to 100%.
Regarding `CC(NC(=O)c1cc(Cl)cc(C(F)(F)F)c1)c1nccnc1-c1ncccn1` (racemic) [Example I-10, (rac)-3-Chloro-N-(1-(3-(pyrimidin-2-yl)pyrazin-2-yl)ethyl)-5-(trifluoromethyl)benzamide], the pest or weed control at 5 µg/cm2, 500 g/ha in experiment [4] and in experiment [5] was 80% each time. In experiment [1], this compound had a mortality at 100 ppm of 100%. For the same compound, in experiment [3], the mortality at 20 mg/m2 lay within 80 to 100%.
